Data set [1] concerns Escherichia coli. As to the kind of experiment: microbe, parasite or virus in culture.
Data set [2] addresses T1, Voltage-gated N-type calcium channel alpha-1B subunit/Amyloid beta A4 precursor protein-binding family A member 1 (Homo sapiens, UniProt Q00975+Q02410). The format is protein assay.
Data set [3] has as its target T1, Voltage-gated N-type calcium channel alpha-1B subunit/Amyloid beta A4 precursor protein-binding family A member 1. Type of data set: protein assay. The source holds these as a separate data set.
Data set [4] addresses Cytochrome P450 3A4 (Homo sapiens, UniProt P08684).
For data set [5], the target named is T2, Cytochrome P450 1A2 (Homo sapiens, UniProt P05177).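 Note: PubChem cytochrome P450 panel assay, CYP1A2 panel member.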
T2 sequence (P05177 whole entry): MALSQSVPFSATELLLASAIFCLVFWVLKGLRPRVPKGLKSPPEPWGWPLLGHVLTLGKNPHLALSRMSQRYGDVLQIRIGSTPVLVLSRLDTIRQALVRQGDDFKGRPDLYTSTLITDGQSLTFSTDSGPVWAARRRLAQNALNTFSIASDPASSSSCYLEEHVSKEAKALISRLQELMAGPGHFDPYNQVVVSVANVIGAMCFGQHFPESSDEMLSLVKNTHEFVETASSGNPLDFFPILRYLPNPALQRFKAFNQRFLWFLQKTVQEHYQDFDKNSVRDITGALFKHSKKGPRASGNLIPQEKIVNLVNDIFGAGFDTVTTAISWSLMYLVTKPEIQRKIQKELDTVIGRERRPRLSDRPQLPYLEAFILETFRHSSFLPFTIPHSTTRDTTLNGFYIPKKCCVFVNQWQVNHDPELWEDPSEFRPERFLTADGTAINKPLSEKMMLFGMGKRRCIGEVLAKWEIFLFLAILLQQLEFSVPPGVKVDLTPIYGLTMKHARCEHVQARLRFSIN

The subject of data set [6] is Vero. As to the kind of experiment: cells. Type of data set: functional. The note with it: Chlorocebus sabaeus.
Data set [7] concerns Vero. As to the kind of experiment: cells. Type of data set: functional, cell-based. Particulars: Chlorocebus sabaeus.
Data set [8] can be described thus: alpha-synuclein stem-loop luciferase translation blockers – H4 neuroglioma cells, luminescence, confirmation (AID 1988). Type of data set: functional, cell-based.
Data set [9] relates to Vero. Put plainly: mammalian cell viability reduction – secondary assay, cytotoxicity control for West Nile virus antiviral project, dose response (AID 1650). The format is functional. Particulars: Chlorocebus sabaeus.
A short description of data set [10]: viability of uninfected HEp-2 cells – cell-based, HTS, cytotoxicity control for RSV inhibitor project, dose response (AID 2410). Type of data set: functional. The note with it: human respiratory syncytial virus.
Data set [11] in a line: Luminescence Cell-Based Dose Response HTS to Identify Inhibitors of 5'UTR Stem-Loop Driven Prion Protein mRNA Translation in H4 Neuroglioblastoma Cells. [Related pubchem assays: 1827 (Project Summary), 1813 (Primary HTS)]. The format is functional.
Data set [12] in a line: luciferase reporter signal suppression in cells – H4 neuroglioma cells, luminescence, dose response (AID 1990). The format is functional, cell-based. (In general: A reporter such as luciferase makes a cellular process visible.)
The test system of data set [13] is Escherichia coli. As to the kind of experiment: microbe, parasite or virus in culture. The source holds these as a separate data set.
Data set [14] concerns HeLa. Put plainly: ATP-based viability loss in HeLa cells – cell-based, CellTiter-Glo luminescence, cherry-pick samples, cytotoxicity control for MITF activator project, dose response (AID 540259). Type of data set: functional. Particulars: Homo sapiens. In general terms: ATP-based viability assays read luminescence as a measure of living cells.
Data set [15] in a line: NIH-3T3 fibroblast cytotoxicity, dose response, cytotoxicity control, cell-based, fluorescence, Alamar Blue, secondary assay (AID 2327).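 Note: NIH-3T3 mouse fibroblasts cultured with fluconazole at 8 µg/mL.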 The format is functional. In general terms: Alamar Blue is a resazurin reagent that responds to reducing activity.
For data set [16], the target named is ATP-dependent molecular chaperone HSP82 (Candida albicans (strain WO-1) (Yeast), UniProt C4YTQ8). As to the kind of experiment: steroid-induced GRE reporter decrease in yeast – S. cerevisiae, luminescence, Hsp90 inhibitor project, dose response (AID 2400).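 Note: beta-galactosidase luminescence from glucocorticoid response element reporter as proxy for Hsp90 function; inhibitor potency where signal loss means Hsp90 inhibition.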 Type of data set: functional, cell-based.
Chain of ATP-dependent molecular chaperone HSP82 (C4YTQ8 whole entry): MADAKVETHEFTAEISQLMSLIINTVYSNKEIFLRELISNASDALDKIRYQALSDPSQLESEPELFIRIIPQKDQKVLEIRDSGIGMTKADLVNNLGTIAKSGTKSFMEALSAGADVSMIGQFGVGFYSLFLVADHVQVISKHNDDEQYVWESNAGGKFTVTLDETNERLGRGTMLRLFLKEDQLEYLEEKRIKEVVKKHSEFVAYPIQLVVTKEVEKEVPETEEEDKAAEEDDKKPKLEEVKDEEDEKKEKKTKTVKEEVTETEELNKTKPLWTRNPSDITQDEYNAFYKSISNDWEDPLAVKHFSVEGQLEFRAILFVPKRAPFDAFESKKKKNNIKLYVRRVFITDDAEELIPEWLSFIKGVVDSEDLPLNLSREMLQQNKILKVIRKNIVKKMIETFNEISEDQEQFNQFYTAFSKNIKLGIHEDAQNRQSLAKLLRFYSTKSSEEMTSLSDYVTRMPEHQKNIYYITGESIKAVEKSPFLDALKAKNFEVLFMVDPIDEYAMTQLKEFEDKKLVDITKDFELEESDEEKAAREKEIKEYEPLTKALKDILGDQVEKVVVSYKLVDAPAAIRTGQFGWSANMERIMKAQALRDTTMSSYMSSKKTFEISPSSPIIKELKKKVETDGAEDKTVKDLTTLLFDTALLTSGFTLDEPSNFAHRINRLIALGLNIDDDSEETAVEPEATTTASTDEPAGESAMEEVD
Data set [17] has as its target T3, Serine/threonine-protein phosphatase (Candida dubliniensis (strain CD36 / CBS 7987 / NCPF 3949 / NRRLY-17841) (Yeast), UniProt B9W6M3).
T3 sequence (B9W6M3 whole entry): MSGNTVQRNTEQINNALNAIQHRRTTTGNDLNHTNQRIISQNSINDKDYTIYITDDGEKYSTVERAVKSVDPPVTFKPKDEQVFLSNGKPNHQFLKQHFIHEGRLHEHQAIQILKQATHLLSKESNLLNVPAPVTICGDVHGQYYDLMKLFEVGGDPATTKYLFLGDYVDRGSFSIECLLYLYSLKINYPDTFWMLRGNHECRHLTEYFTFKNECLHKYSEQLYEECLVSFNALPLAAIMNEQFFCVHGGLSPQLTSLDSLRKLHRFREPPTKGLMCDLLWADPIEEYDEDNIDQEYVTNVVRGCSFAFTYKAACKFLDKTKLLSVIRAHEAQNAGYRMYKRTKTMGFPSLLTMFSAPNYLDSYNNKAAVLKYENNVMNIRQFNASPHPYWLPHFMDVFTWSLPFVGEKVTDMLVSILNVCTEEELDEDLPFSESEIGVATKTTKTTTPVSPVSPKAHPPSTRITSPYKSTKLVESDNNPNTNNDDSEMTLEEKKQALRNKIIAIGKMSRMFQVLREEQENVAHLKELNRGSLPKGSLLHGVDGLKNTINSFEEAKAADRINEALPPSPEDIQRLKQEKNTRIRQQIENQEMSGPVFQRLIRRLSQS
Put plainly: blockers of CaCl2-induced CDRE-lacZ signaling – S. cerevisiae, luminescence, secondary, dose response (AID 2388).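 Note: yeast reporter cells carrying a calcineurin-responsive lacZ construct stimulated with calcium chloride; luminescent beta-galactosidase reporter signal in whole cells rather than isolated phosphatase activity; potency for inhibition where a drop in reporter signal means calcineurin blockade.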 Type of data set: functional, cell-based.

Data set [18] in a line: fluconazole-exposed Candida albicans growth modulators – fluorescence, retest, confirmation (AID 2467). The format is functional, cell-based.
Data set [19] deals with Cytochrome P450 2C19 (Homo sapiens, UniProt P33261). As to the kind of experiment: Cytochrome panel assay with activity outcomes. Panel member name: p450-cyp2c19 Compounds with AC50 equal or less than 10 uM are considered active. Type of data set: functional. Particulars: read-out: AC50.
The target of data set [20] is Cytochrome P450 2D6 (Homo sapiens, UniProt P10635).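 Note: CYP2D6 member of a cytochrome P450 panel assay.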
Chain of Cytochrome P450 2D6 (P10635 whole entry): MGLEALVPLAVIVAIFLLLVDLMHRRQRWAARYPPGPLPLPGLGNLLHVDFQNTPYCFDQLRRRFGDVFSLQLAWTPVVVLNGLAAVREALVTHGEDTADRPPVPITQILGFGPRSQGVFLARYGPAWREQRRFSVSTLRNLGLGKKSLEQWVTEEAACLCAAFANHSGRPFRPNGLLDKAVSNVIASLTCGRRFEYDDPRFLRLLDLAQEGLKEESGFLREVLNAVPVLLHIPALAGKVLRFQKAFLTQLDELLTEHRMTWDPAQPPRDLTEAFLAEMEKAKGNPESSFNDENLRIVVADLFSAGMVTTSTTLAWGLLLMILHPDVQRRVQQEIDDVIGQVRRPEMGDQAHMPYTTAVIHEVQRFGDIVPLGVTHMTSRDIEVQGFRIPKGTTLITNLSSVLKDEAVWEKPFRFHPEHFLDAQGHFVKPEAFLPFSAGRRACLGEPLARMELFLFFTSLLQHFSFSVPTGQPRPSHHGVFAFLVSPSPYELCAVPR
Data set [21] can be described thus: THP-1 cell cytotoxicity, dose response, cytotoxicity control for non-replicating M. tuberculosis project (AID 489025). The format is functional.
Data set [22] deals with Streptococcus. Put plainly: GAS UMAA2166 growth inhibition – luminescence, BacTiterGlo, counter-screen for streptokinase expression inhibitor project, dose response (AID 1915).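 Note: potency for reduction of bacterial viability or growth.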 The format is functional, organism-based.
Data set [23] can be described thus: cells. Type of data set: functional.
The target of data set [24] is T4, Short transient receptor potential channel 4 (Mus musculus, UniProt Q9QUQ5).
T4 sequence (Q9QUQ5 whole entry): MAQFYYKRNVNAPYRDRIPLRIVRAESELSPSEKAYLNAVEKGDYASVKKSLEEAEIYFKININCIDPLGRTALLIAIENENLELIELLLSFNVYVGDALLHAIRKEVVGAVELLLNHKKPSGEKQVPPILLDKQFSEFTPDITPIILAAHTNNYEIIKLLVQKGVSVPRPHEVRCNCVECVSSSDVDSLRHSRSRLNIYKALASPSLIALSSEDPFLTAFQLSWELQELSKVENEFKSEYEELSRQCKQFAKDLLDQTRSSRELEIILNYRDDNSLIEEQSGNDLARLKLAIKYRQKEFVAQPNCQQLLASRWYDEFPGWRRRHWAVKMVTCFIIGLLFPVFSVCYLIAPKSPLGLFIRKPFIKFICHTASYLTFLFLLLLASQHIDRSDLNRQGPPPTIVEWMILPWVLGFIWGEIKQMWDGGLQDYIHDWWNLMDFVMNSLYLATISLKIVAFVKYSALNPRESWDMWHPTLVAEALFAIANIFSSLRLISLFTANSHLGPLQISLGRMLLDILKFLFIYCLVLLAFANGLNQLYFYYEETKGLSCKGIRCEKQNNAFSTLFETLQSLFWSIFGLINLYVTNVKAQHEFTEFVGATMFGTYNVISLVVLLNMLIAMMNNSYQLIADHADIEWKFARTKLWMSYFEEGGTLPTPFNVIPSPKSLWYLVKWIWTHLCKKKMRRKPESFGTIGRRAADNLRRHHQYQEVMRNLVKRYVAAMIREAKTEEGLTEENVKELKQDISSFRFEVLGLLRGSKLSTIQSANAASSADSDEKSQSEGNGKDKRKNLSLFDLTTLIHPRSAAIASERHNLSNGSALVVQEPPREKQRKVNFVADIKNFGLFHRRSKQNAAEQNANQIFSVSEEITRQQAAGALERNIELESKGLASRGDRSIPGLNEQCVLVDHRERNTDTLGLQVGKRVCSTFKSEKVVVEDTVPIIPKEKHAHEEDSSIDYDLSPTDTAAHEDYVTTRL
As to the kind of experiment: calcium entry via TRPC4 opening agents – cell-based, HEK293 TRPC4/mu-opioid, Fluo-4 calcium, dose response (AID 434937). Type of data set: functional.

Data set [25] in a line: Vero E6 cell cytotoxicity, dose response, cytotoxicity control for non-replicating M. tuberculosis project, secondary assay (AID 492998). The format is functional, VeroE6. The note with it: Vero C1008.
Data set [26] concerns Streptococcus sp. 'group A'. Put plainly: Streptococcus pyogenes SK(-)GAS viability under kanamycin – luminescence, BacTiterGlo, confirmation, counter-screen for streptokinase expression inhibitor project, dose response (AID 1900). Type of data set: functional, organism-based.
Data set [27] deals with Glyceraldehyde-3-phosphate dehydrogenase (Homo sapiens, UniProt P04406).
Chain of Glyceraldehyde-3-phosphate dehydrogenase (P04406 whole entry): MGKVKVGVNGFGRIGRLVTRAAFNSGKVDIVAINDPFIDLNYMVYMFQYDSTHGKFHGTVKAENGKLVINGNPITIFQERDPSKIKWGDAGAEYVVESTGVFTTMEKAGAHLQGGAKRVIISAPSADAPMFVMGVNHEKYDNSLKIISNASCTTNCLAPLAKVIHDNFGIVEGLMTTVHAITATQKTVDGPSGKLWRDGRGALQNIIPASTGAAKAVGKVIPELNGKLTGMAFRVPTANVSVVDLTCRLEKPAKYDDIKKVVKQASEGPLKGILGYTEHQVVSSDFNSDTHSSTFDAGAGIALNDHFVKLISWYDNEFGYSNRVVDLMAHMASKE
Data set [28] deals with T5, Dual specificity protein phosphatase 6 (Rattus norvegicus, UniProt Q64346).
T5 sequence (Q64346 whole entry): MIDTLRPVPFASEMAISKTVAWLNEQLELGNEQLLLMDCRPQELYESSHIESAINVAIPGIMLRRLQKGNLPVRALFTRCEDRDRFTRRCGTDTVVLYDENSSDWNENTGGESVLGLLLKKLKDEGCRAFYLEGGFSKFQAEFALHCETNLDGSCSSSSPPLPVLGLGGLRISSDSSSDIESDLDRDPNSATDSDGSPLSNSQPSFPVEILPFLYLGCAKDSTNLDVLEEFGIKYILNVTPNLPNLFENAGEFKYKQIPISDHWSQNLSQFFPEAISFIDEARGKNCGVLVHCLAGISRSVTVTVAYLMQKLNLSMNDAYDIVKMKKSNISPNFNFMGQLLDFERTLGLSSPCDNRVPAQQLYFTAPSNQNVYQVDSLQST
Type of data set: functional.

The target in data set [29] is T6, Tyrosine-protein phosphatase non-receptor type 7 (Homo sapiens, UniProt P35236).
T6 sequence (P35236 whole entry): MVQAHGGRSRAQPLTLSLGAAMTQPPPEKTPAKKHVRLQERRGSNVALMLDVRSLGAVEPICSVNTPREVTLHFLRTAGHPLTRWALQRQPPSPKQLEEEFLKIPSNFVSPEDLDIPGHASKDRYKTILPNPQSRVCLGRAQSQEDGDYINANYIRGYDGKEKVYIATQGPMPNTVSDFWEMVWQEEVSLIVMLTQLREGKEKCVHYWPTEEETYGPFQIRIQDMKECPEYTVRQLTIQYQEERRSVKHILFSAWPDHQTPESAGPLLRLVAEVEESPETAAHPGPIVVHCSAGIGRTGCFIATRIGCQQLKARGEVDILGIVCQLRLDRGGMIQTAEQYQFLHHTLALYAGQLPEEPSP
Type of data set: functional.

Data set [30] deals with T5, Dual specificity protein phosphatase 6.

Here are results for 9 compounds from ChEMBL document CHEMBL1201862, “PubChem BioAssay data set” (2004).

Activity calls are given as the source filed them. Some results are limits rather than exact numbers.

T1 sequence (Q00975 whole entry): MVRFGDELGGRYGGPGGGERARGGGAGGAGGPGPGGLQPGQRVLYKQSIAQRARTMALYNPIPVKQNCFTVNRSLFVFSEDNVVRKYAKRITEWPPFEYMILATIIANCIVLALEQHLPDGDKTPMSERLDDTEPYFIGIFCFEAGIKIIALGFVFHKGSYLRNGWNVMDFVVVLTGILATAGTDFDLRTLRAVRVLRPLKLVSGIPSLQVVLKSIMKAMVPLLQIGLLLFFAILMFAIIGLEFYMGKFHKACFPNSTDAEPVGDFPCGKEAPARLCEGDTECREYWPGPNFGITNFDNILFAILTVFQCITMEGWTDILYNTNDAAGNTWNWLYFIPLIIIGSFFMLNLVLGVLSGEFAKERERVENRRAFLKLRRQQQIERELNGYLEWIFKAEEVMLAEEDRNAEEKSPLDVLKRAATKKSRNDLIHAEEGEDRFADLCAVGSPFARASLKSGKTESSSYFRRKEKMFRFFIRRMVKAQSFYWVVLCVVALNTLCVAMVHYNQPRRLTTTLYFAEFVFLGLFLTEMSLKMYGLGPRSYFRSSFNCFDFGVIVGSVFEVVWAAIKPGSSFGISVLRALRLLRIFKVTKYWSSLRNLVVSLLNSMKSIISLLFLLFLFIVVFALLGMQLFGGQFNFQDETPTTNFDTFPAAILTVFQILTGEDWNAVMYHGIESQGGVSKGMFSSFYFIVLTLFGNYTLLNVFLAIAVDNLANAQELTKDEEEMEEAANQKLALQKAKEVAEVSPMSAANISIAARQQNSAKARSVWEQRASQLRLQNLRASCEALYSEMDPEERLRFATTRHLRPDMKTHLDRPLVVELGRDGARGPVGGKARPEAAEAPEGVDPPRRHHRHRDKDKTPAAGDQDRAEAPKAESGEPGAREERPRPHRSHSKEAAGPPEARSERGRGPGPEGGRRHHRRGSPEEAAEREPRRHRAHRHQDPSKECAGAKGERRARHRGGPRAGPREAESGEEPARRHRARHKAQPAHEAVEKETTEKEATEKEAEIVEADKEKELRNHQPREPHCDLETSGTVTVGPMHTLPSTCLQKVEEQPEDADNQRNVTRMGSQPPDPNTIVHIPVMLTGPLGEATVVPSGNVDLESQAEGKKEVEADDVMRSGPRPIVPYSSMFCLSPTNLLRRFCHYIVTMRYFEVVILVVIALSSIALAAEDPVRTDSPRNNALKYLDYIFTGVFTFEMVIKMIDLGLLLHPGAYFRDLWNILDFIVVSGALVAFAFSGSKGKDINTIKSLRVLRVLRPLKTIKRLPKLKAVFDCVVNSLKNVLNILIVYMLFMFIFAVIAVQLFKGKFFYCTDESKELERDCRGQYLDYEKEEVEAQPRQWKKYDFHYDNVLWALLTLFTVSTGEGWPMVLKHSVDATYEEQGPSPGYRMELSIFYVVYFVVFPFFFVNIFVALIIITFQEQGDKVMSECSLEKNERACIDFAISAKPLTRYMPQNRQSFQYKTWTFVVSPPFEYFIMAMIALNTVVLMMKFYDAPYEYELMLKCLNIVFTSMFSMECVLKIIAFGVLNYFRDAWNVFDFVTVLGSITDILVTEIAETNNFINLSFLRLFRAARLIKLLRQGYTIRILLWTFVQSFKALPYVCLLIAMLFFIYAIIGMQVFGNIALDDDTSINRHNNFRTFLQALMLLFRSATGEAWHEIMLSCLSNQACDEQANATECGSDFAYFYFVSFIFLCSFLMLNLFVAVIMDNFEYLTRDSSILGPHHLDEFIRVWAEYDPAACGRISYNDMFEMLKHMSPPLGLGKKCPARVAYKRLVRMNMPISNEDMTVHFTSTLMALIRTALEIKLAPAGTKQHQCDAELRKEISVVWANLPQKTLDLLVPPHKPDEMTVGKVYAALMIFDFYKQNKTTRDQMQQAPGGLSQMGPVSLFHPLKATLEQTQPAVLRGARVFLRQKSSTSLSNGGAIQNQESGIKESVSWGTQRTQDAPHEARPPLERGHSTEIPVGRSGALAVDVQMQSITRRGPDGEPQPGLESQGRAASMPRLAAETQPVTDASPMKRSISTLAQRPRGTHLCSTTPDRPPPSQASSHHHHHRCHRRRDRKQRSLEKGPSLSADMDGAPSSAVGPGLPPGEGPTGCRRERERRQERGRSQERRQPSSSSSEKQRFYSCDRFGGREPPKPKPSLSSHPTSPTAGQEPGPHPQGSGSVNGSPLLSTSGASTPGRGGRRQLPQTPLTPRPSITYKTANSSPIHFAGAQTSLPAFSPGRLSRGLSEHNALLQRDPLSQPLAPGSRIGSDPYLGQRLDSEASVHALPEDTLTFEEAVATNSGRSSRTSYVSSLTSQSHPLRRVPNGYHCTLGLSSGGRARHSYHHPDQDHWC
T1 sequence (Q02410 whole entry): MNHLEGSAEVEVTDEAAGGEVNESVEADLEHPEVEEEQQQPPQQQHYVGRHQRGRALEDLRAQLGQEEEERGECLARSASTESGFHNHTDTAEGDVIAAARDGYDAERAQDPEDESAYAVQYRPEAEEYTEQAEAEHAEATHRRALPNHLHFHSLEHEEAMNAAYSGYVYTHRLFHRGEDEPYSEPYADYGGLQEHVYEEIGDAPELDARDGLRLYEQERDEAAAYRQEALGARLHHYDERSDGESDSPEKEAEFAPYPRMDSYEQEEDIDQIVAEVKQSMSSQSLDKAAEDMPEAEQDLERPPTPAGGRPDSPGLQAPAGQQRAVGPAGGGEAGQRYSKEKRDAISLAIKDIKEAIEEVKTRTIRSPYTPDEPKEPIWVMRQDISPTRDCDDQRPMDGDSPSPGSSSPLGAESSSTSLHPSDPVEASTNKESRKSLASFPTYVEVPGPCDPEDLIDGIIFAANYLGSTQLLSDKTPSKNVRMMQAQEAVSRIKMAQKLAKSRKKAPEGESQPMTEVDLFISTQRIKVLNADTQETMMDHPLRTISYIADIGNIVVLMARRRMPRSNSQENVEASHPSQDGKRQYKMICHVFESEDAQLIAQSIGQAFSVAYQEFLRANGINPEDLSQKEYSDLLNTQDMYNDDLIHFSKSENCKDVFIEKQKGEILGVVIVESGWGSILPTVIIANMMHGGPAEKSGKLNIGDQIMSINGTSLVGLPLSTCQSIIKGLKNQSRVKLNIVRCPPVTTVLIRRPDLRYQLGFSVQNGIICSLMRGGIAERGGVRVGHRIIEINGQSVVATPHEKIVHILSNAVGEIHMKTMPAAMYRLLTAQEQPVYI

A word on the AC50: it is the concentration at which the activity in the assay is half-maximal. Usually IC50 stands for the concentration that inhibits the measured activity by half. On to `O=C(O)CCc1ccc(-c2cccs2)o1`, for which, in data set [1], the AC50 was > 380 µM (inactive). For the same compound, the IC50 is 21.3 µM (active) in [2] and 3.13 µM (active) in data set [3].
As usually defined, the CC50 is the concentration giving 50% cytotoxicity. On to `S=C1SCN(CCN2CCOCC2)CN1Cc1ccccc1`, for which the AC50 in data set [4] was 28.2 µM (inconclusive); in data set [5] it was 6.31 µM (inconclusive). Further, the CC50 in data set [6] is 24.4 µM (active). Besides, the IC50 in data set [7] was > 25 µM (active).
Usually EC50 stands for the midpoint of the concentration-response curve. Consider `O=S(=O)(c1cccs1)N1CCN(c2ccnc3cc(Cl)ccc23)CC1`, for which the EC50 in data set [8] is > 120 µM (not active); in data set [11] it was 13.1 µM (active); in data set [12], 13.5 µM (active). The 50% cytotoxic concentration (CC50) in data set [6] is 22 µM (active); in [9], 30 µM (active); in data set [10], 14.3 µM (active). For the same compound, the IC50 in data set [7] is > 25 µM (active).
As for `O=C(CSCc1ccc(Cl)cc1)Nc1ccc(-c2nnc(-c3ccccc3)o2)cc1`, the AC50 in data set [13] was 23.9 µM (active); in data set [1], 58.8 µM (active).
With `CN(/N=C/c1ccc2c(c1)OCO2)c1ccccc1`, the AC50 in data set [14] was 98.3 µM (active).
On to `C=CCN(CC=C)Cc1c(O)ccc2c(=O)c(-c3ccccc3)coc12`, for which the EC50 in [15] is 131 µM (active); in data set [16] it was > 150 µM (inactive); in [17] it was > 180 µM (inactive); in [18], < 30 nM (active).
On to `Cc1ccc(-c2noc(C3CCCCC3)n2)cc1`, for which, in data set [14], the AC50 is 79.6 µM (active).
As for `Cc1ccc(C(=O)NNC(=S)NC(=O)c2ccc(Cl)cc2)cc1`, the figures for the AC50 in data set [19] and in data set [20] were 35.5 µM (inconclusive) and “inconclusive”, respectively. Also, the half-maximal cytotoxic concentration (CC50) in [21] is 22.9 µM (active); in data set [25], 17 µM (active). The EC50 in [22] is 3.71 µM (active); in data set [24], 2.11 µM (active); in [26], 182 nM (active). Moreover, the IC50 in [23] was < 100 nM (active).
Regarding `CCn1c(=O)n(Cc2ccccc2C)c(=O)n([C@@H](Cc2ccccc2)C(=O)O)c1=O`, the IC50 is > 100 µM (not active) in data set [27], > 100 µM (inactive) in data set [28], > 100 µM (not active) in data set [29] and > 100 µM (inactive) in [30].
